Laboratory results published in patent US6706663B2, “Herbicidal 3-heterocyclic substituted benzisothiazole and benzisoxazole compounds” (Wyeth, priority 2000, dated 2004).

Tests used:
[1] = system: TRZAWR (Wheat, Winter, cv Riband); assay: Postemergence herbicidal evaluation; format: in vivo, Triticum aestivum; settings: postemergence
Method: (§1) In the tests, seedling plants are grown in jiffy flats for about two weeks. […] After spraying, the plants are placed on greenhouse benches and are cared for in accordance with conventional greenhouse procedures. From four to five weeks after treatment, the seedling plants are examined and rated according to the rating system set forth below. Where more than one test is involved for a given compound, the data are averaged.
(§2) Results of herbicide evaluation are expressed on a rating scale (0-9). The scale is based upon a visual observation of plant stand, vigor, malformation, size, chlorosis and overall plant appearance as compared with a control.

[2] = system: ECHCG (Echinochloa crus-galli); assay: Postemergence herbicidal evaluation; format: in vivo, (L.) Beau; settings: postemergence
Method: as §1, §2

SETVI (Setaria viridis) [3] = assay: Preemergence herbicidal evaluation; format: in vivo, (L.) Beau; settings: Rate 0.0620 kg/ha; rated 4-5 weeks after treatment
From the text: as §2
(§3) The preemergence herbicidal activity of the test compounds of the present invention is exemplified by the following tests in which the seeds of a variety of monocotyledonous and dicotyledonous plants are separately mixed with potting soil and planted on top of approximately one inch of soil in separate pint cups. […] The treated cups are then placed on greenhouse benches, watered and cared for in accordance with conventional greenhouse procedures. From four to five weeks after treatment, the tests are terminated and each cup is examined and rated according to the rating system provided in Example 87. The plant species used and the compounds evaluated are the same as those shown in Example 87.

[4] = system: ECHCG (Echinochloa crus-galli); assay: Preemergence herbicidal evaluation; format: in vivo, (L.) Beau; settings: Rate 0.0620 kg/ha; rated 4-5 weeks after treatment
From the text: as §2, §3

[5] = system: SAGPY (Sagittaria pygmaea); assay: Flooded paddy, preemergence weed control; format: in vivo, L.; settings: rated 3-4 weeks after treatment, 0-9 rating scale
Method: as §2
(§4) Preemergence herbicidal activity under flooded paddy conditions is determined as follows: plant seeds or propagating organs are planted in the top 0.5 cm of silt loam soil in 32 oz. plastic containers with a diameter of 10.5 cm and no drainage holes. Water is added to these containers and maintained at 1.5 to 3 cm above the soil surface for the duration of the experiment. […] The treated containers are placed on greenhouse benches and cared for in accordance with conventional greenhouse procedures.

CYPIR (Cyperus iria) = assay: Flooded paddy, preemergence weed control; format: in vivo; settings: rated 3-4 weeks after treatment, 0-9 rating scale
Method: as §2, §4

[6] = system: IPOHE (Ipomoea hederacea); assay: Postemergence herbicidal evaluation; format: in vivo, (L.) Jacq.; settings: postemergence
Method: as §1, §2

ZEAMX (Corn, Field) [7] = assay: Postemergence herbicidal evaluation; format: in vivo, Zea mays, L.; settings: postemergence
Method: as §1, §2

[8] = system: ABUTH (Abutilon theophrasti); assay: Postemergence herbicidal evaluation; format: in vivo, Medic.; settings: postemergence
Method: as §1, §2

[9] = system: ECHORC (Echinochloa oryzoides); assay: Flooded paddy, preemergence weed control; format: in vivo, Echinochloa oryzoides (Ard.) Fritsch.; settings: rated 3-4 weeks after treatment, 0-9 rating scale
Method: as §2, §4

ZEAMX (Corn, Field) [10] = assay: Preemergence herbicidal evaluation; format: in vivo, Zea mays, L.; settings: Rate 0.0620 kg/ha; rated 4-5 weeks after treatment
From the text: as §2, §3

SETVI (Setaria viridis) [11] = assay: Postemergence herbicidal evaluation; format: in vivo, (L.) Beau; settings: postemergence
Method: In the tests, seedling plants are grown in jiffy flats for about two weeks. The test compounds are dispersed in 50/50 acetone/water mixtures containing 0.5% TWEEN® 20, a polyoxyethylene sorbitan monolaurate surfactant of Atlas Chemical Industries, in sufficient quantities to provide the equivalent of about 0.0040 kg to 1.000 kg per hectare of active compound when applied to the plants through a spray nozzle operating at 40 psi for a predetermined time. After spraying, the plants are placed on greenhouse benches and are cared for in accordance with conventional greenhouse procedures. From four to five weeks after treatment, the seedling plants are examined and rated according to the rating system set forth below. Where more than one test is involved for a given compound, the data are averaged.
as §2

[12] = system: GLXMAW (Soybean, Williams); assay: Preemergence herbicidal evaluation; format: in vivo, Glycine max, (L.) Merr. cv Williams; settings: Rate 0.0620 kg/ha; rated 4-5 weeks after treatment
From the text: as §2, §3

[13] = system: AMBEL (Ambrosia artemisifolia); assay: Preemergence herbicidal evaluation; format: in vivo, L.; settings: Rate 0.0620 kg/ha; rated 4-5 weeks after treatment
From the text: as §2, §3

[14] = system: CASOB (Cassia obtusifolia); assay: Preemergence herbicidal evaluation; format: in vivo, L.; settings: Rate 0.0620 kg/ha; rated 4-5 weeks after treatment
From the text: as §2, §3

[15] = system: CHEAL (Chenopodium album); assay: Preemergence herbicidal evaluation; format: in vivo, L.; settings: Rate 0.0620 kg/ha; rated 4-5 weeks after treatment
From the text: as §2, §3

[16] = system: MOOVA (Monochoria vaginalis); assay: Flooded paddy, preemergence weed control; format: in vivo, Presl.; settings: rated 3-4 weeks after treatment, 0-9 rating scale
Method: as §2, §4

[17] = system: TRZAWR (Wheat, Winter, cv Riband); assay: Preemergence herbicidal evaluation; format: in vivo, Triticum aestivum; settings: Rate 0.0620 kg/ha; rated 4-5 weeks after treatment
From the text: as §2, §3

ORYSAT (Rice, Tebonnet) [18] = assay: Postemergence herbicidal evaluation; format: in vivo, Oryza sativa, (L.) Tebonnet; settings: postemergence
Method: as §1, §2

[19] = system: IPOHE (Ipomoea hederacea); assay: Preemergence herbicidal evaluation; format: in vivo, (L.) Jacq.; settings: Rate 0.0620 kg/ha; rated 4-5 weeks after treatment
From the text: as §2, §3

ORYSAT (Rice, Tebonnet) [20] = assay: Preemergence herbicidal evaluation; format: in vivo, Oryza sativa, (L.) Tebonnet; settings: Rate 0.0620 kg/ha; rated 4-5 weeks after treatment
From the text: as §2, §3

[21] = system: GLXMAW (Soybean, Williams); assay: Postemergence herbicidal evaluation; format: in vivo, Glycine max, (L.) Merr. cv Williams; settings: postemergence
Method: as §1, §2

[22] = system: AMBEL (Ambrosia artemisifolia); assay: Postemergence herbicidal evaluation; format: in vivo, L.; settings: postemergence
Method: as §1, §2

[23] = system: CASOB (Cassia obtusifolia); assay: Postemergence herbicidal evaluation; format: in vivo, L.; settings: postemergence
Method: as §1, §2

[24] = system: CHEAL (Chenopodium album); assay: Postemergence herbicidal evaluation; format: in vivo, L.; settings: postemergence
Method: as §1, §2

GALAP (Galium aparine) [25] = assay: Preemergence herbicidal evaluation; format: in vivo; settings: Rate 0.0620 kg/ha; rated 4-5 weeks after treatment
From the text: as §2, §3

[26] = system: ABUTH (Abutilon theophrasti); assay: Preemergence herbicidal evaluation; format: in vivo, Medic.; settings: Rate 0.0620 kg/ha; rated 4-5 weeks after treatment
From the text: as §2, §3

ORYSAT (Rice, Tebonnet) [27] = assay: Flooded paddy, post-transplant rice tolerance; format: in vivo, Oryza sativa, (L.) Tebonnet; settings: flooded paddy, post-transplant rice, rated 3-4 weeks after treatment, 0-9 rating scale
Method: as §2
The tolerance of transplanted rice to post-transplanted herbicide application is determined as follows: two ten-day-old rice seedlings (cv. Tebonnet) are transplanted into silt loam soil in 32 oz. plastic containers with a diameter of 10.5 cm and no drainage holes. After transplanting, the containers are flooded and the water level is maintained at 1.5 to 3 cm above the soil surface. […] The treated containers are placed on greenhouse benches, watered such that the water level is maintained as stated above, and cared for in accordance with conventional greenhouse procedures.

GALAP (Galium aparine) [28] = assay: Postemergence herbicidal evaluation; format: in vivo; settings: postemergence
Method: as §1, §2

Q: With C[C@@H]1OC(c2nsc3cc(F)c(-n4c(=O)cc(C(F)(F)F)n(C)c4=O)cc23)O[C@@H]1C (stereo partly drawn) [Compound 63, 3-[3-[(4R,5S)-4,5-dimethyl-1,3-dioxolan-2-yl]-6-fluoro-1,2-benzisothiazol-5-yl]-1-methyl-6-(trifluoromethyl)uracil] as the compound, how does the TRZAWR herbicidal rating ([1]; rate 0.0320 kg/ha) read?
A: 5.0

Q: What about the TRZAWR herbicidal rating ([1]; rate 0.0620 kg/ha) of the same compound?
A: 6.0

Q: What about the ECHCG herbicidal rating ([2]; rate 0.0320 kg/ha) of the same compound?
A: 6.0

Q: What about the ECHCG herbicidal rating ([2]; rate 0.0620 kg/ha) of the same compound?
A: 7.0

Q: And the “Preemergence herbicidal rating SETVI” value (SETVI (Setaria viridis) [3])?
A: 9.0

Q: And the “Preemergence herbicidal rating ECHCG” value [4]?
A: 9.0

Q: And the “herbicidal rating, SAGPY” value ([5]; rate 0.0080 kg/ha)?
A: 3.0

Q: What about the “herbicidal rating, SAGPY” value ([5]; rate 0.0320 kg/ha) of the same compound?
A: 7.0

Q: And the “herbicidal rating, SAGPY” value ([5]; rate 0.1250 kg/ha)?
A: 9.0

Q: And the “herbicidal rating, CYPIR” value (CYPIR (Cyperus iria); rate 0.0080 kg/ha)?
A: 4.0

Q: What about the “herbicidal rating, CYPIR” value (CYPIR (Cyperus iria); rate 0.0320 kg/ha) of the same compound?
A: 9.0

Q: And the “herbicidal rating, CYPIR” value (CYPIR (Cyperus iria); rate 0.1250 kg/ha)?
A: 9.0

Q: What about the IPOHE herbicidal rating ([6]; rate 0.0320 kg/ha) of the same compound?
A: 9.0

Q: What about the IPOHE herbicidal rating ([6]; rate 0.0620 kg/ha) of the same compound?
A: 9.0

Q: What about the ZEAMX herbicidal rating (ZEAMX (Corn, Field) [7]; rate 0.0320 kg/ha) of the same compound?
A: 5.5

Q: And the ZEAMX herbicidal rating (ZEAMX (Corn, Field) [7]; rate 0.0620 kg/ha)?
A: 6.0

Q: What about the ABUTH herbicidal rating ([8]; rate 0.0320 kg/ha) of the same compound?
A: 9.0

Q: And the ABUTH herbicidal rating ([8]; rate 0.0620 kg/ha)?
A: 9.0

Q: What about the “herbicidal rating, ECHORC” value ([9]; rate 0.0080 kg/ha) of the same compound?
A: 9.0

Q: What about the “herbicidal rating, ECHORC” value ([9]; rate 0.0320 kg/ha) of the same compound?
A: 9.0

Q: What about the “herbicidal rating, ECHORC” value ([9]; rate 0.1250 kg/ha) of the same compound?
A: 9.0

Q: What about the “Preemergence herbicidal rating ZEAMX” value (ZEAMX (Corn, Field) [10]) of the same compound?
A: 8.0

Q: What about the SETVI herbicidal rating (SETVI (Setaria viridis) [11]; rate 0.0320 kg/ha) of the same compound?
A: 7.0

Q: And the SETVI herbicidal rating (SETVI (Setaria viridis) [11]; rate 0.0620 kg/ha)?
A: 9.0

Q: And the “Preemergence herbicidal rating GLXMAW” value [12]?
A: 9.0

Q: What about the “Preemergence herbicidal rating AMBEL” value [13] of the same compound?
A: 9.0

Q: And the “Preemergence herbicidal rating CASOB” value [14]?
A: 9.0

Q: What about the “Preemergence herbicidal rating CHEAL” value [15] of the same compound?
A: 9.0

Q: What about the “herbicidal rating, MOOVA” value ([16]; rate 0.0080 kg/ha) of the same compound?
A: 3.0

Q: And the “herbicidal rating, MOOVA” value ([16]; rate 0.0320 kg/ha)?
A: 9.0

Q: And the “herbicidal rating, MOOVA” value ([16]; rate 0.1250 kg/ha)?
A: 9.0

Q: And the “Preemergence herbicidal rating TRZAWR” value [17]?
A: 7.0

Q: And the ORYSAT herbicidal rating (ORYSAT (Rice, Tebonnet) [18]; rate 0.0320 kg/ha)?
A: 5.0

Q: And the ORYSAT herbicidal rating (ORYSAT (Rice, Tebonnet) [18]; rate 0.0620 kg/ha)?
A: 6.0

Q: What about the “Preemergence herbicidal rating IPOHE” value [19] of the same compound?
A: 9.0

Q: And the “Preemergence herbicidal rating ORYSAT” value (ORYSAT (Rice, Tebonnet) [20])?
A: 8.0

Q: And the GLXMAW herbicidal rating ([21]; rate 0.0320 kg/ha)?
A: 6.5

Q: What about the GLXMAW herbicidal rating ([21]; rate 0.0620 kg/ha) of the same compound?
A: 9.0

Q: What about the AMBEL herbicidal rating ([22]; rate 0.0320 kg/ha) of the same compound?
A: 9.0

Q: And the AMBEL herbicidal rating ([22]; rate 0.0620 kg/ha)?
A: 9.0

Q: What about the CASOB herbicidal rating ([23]; rate 0.0320 kg/ha) of the same compound?
A: 9.0

Q: What about the CASOB herbicidal rating ([23]; rate 0.0620 kg/ha) of the same compound?
A: 9.0

Q: And the CHEAL herbicidal rating ([24]; rate 0.0320 kg/ha)?
A: 9.0

Q: And the CHEAL herbicidal rating ([24]; rate 0.0620 kg/ha)?
A: 9.0

Q: What about the “Preemergence herbicidal rating GALAP” value (GALAP (Galium aparine) [25]) of the same compound?
A: 9.0

Q: And the “Preemergence herbicidal rating ABUTH” value [26]?
A: 9.0

Q: And the “herbicidal rating, ORYSAT (rice tolerance)” value (“herbicidal rating, ORYSAT” for short) (ORYSAT (Rice, Tebonnet) [27]; rate 0.0080 kg/ha)?
A: 7.0

Q: What about the “herbicidal rating, ORYSAT” value (ORYSAT (Rice, Tebonnet) [27]; rate 0.0320 kg/ha) of the same compound?
A: 9.0

Q: And the “herbicidal rating, ORYSAT” value (ORYSAT (Rice, Tebonnet) [27]; rate 0.1250 kg/ha)?
A: 9.0

Q: What about the GALAP herbicidal rating (GALAP (Galium aparine) [28]; rate 0.0320 kg/ha) of the same compound?
A: 9.0

Q: And the GALAP herbicidal rating (GALAP (Galium aparine) [28]; rate 0.0620 kg/ha)?
A: 9.0
